The record followed here is patent US7247617B2, “Sixteen-member macrolide antiinfective agents” (Kosan Biosciences Incorporated, priority 2004, dated 2007).

In one test the test system is S. aureus. Description: Biological activity against bacterial strains: S. aureus. Details: unit not given here. The format is cell-based, Staphylococcus aureus. The conditions noted are these: for Biological Activity, S. aureus ATCC6538p: strain ATCC6538p; for Biological Activity, S. aureus ATCC14154*: strain ATCC14154, macrolide resistant strain; for Biological Activity, S. aureus ATCC29213: strain ATCC29213; for Biological Activity, S. aureus ATCC33591*: strain ATCC33591, macrolide resistant strain; for Biological Activity, S. aureus ATCCBAA-39*: strain ATCCBAA-39, macrolide resistant strain; for Biological Activity, S. aureus ATCCBAA-44*: strain ATCCBAA-44, macrolide resistant strain.

In a further test the test system is Haemophilus Influenzae. The test is described as follows: H. influenzae Activity. The format is cell-based.
In another test the test system is S. epidermidis. The test is described as follows: Biological activity against bacterial strains: S. epidermidis. It counts as cell-based, Staphylococcus epidermidis. Conditions: strain ATCC12228.
Another test deals with E. faecalis. Description: Biological activity against bacterial strains: E. faecalis. The conditions noted are these: strain ATCC51575. It counts as cell-based, Enterococcus faecalis.
Another test relates to S. pneumoniae. Description: Biological activity against bacterial strains: S. pneumoniae. The conditions noted are these: for Biological Activity, S. pneumoniae ATCC6301: strain ATCC6301; for Biological Activity, S. pneumoniae ATCC49619: strain ATCC49619; for Biological Activity, S. pneumoniae ATCC700671: strain ATCC700671; for Biological Activity, S. pneumoniae ATCC700676*: strain ATCC700676, macrolide resistant strain; for Biological Activity, S. pneumoniae ATCC700677*: strain ATCC700677, macrolide resistant strain; for Biological Activity, S. pneumoniae ATCC700905*: strain ATCC700905, macrolide resistant strain; for Biological Activity, S. pneumoniae ATCC700906*: strain ATCC700906, macrolide resistant strain. On the set-up: Biological Activity, S. pneumoniae ATCC6301 / Biological Activity, S. pneumoniae ATCC700671 / Biological Activity, S. pneumoniae ATCC700676* / Biological Activity, S. pneumoniae ATCC700677* / Biological Activity, S. pneumoniae ATCC700905* / Biological Activity, S. pneumoniae ATCC700906* / Biological Activity, S. pneumoniae ATCC49619: unit not given here. The format is cell-based, Streptococcus pneumoniae.

The structures appear in SMILES notation. Some results are limits rather than exact numbers.

For the compound `CCC1OC(=O)CC(O)C(C)C(OC2OC(C)C(O)C(N(C)C)C2O)C(CC=O)CC(C)C(=NOCCCOc2ccc3ncccc3c2)C=CC(C)=CC1CO` (stereo not shown) [Compound A], in the test with S. aureus, the “Biological Activity, S. aureus ATCC6538p” value amounted to 0.025; the “Biological Activity, S. aureus ATCC14154*” value stood at 0.20; the “Biological Activity, S. aureus ATCC29213” value came out at 0.098; the “Biological Activity, S. aureus ATCC33591*” value is above 12.5. Further, in the test on S. aureus, the “Biological Activity, S. aureus ATCCBAA-39*” value is given as above 12.5 and the “Biological Activity, S. aureus ATCCBAA-44*” value is above 12.5. Besides, in the test on Haemophilus Influenzae, the “H. influenzae Activity, strain ATCC9006” value is 6.25 and the “H. influenzae Activity, strain ATCC49766” value was determined as 6.25. For the same compound, the “decrease in activity compared to OMT” value in the test on Haemophilus Influenzae (strains ATCC9006 and ATCC49766) is around 4 fold. Moreover, the “Biological Activity, S. epidermidis ATCC12228” value with S. epidermidis is 0.098. For the same compound, the “Biological Activity, E. faecalis ATCC51575” value with E. faecalis is above 12.5. In the test with S. pneumoniae, the “Biological Activity, S. pneumoniae ATCC6301” value was 0.025; the “Biological Activity, S. pneumoniae ATCC49619” value was 0.01; the “Biological Activity, S. pneumoniae ATCC700671” value came out at 0.025; the “Biological Activity, S. pneumoniae ATCC700676*” value is 0.025. For the same compound, in the test on S. pneumoniae, the “Biological Activity, S. pneumoniae ATCC700677*” value is listed as 0.20; the “Biological Activity, S. pneumoniae ATCC700905*” value was 0.025; the “Biological Activity, S. pneumoniae ATCC700906*” value was above 12.5.
Regarding `CCC1OC(=O)CC(O)C(C)C(OC2OC(C)C(O)C(N(C)C)C2O)C(CC=O)CC(C)C(=NOCCCOc2ccc3ncccc3c2)C=CC(C)=CC1COC(=O)NCc1ccccc1` (stereo not shown) [Compound DD], in the test on S. aureus, the “Biological Activity, S. aureus ATCC6538p” value is reported as 0.78; the “Biological Activity, S. aureus ATCC14154*” value amounted to 1.56; the “Biological Activity, S. aureus ATCC29213” value came to 0.78; the “Biological Activity, S. aureus ATCC33591*” value was 12.5. In the test on S. aureus, the “Biological Activity, S. aureus ATCCBAA-39*” value was above 12.5 and the “Biological Activity, S. aureus ATCCBAA-44*” value is on record as above 12.5. Moreover, in the test with Haemophilus Influenzae, the “H. influenzae Activity, strain ATCC9006” value came to 12.5 and the “H. influenzae Activity, strain ATCC49766” value came out at 12.5. Also, the “Biological Activity, S. epidermidis ATCC12228” value in the test on S. epidermidis was determined as 0.78. Further, the “Biological Activity, E. faecalis ATCC51575” value in the test on E. faecalis is recorded as above 12.5. Besides, in the test on S. pneumoniae, the “Biological Activity, S. pneumoniae ATCC6301” value is recorded as 0.049; the “Biological Activity, S. pneumoniae ATCC49619” value is listed as 0.049; the “Biological Activity, S. pneumoniae ATCC700671” value stood at 0.049; the “Biological Activity, S. pneumoniae ATCC700676*” value is listed as 0.049. Moreover, in the test on S. pneumoniae, the “Biological Activity, S. pneumoniae ATCC700677*” value is on record as 0.2; the “Biological Activity, S. pneumoniae ATCC700905*” value was above 12.5; the “Biological Activity, S. pneumoniae ATCC700906*” value stood at 0.049.
As for `CCC1OC(=O)CC(O)C(C)C(OC2OC(C)C(O)C(N(C)C)C2O)C(CC=O)CC(C)C(=NOCCCCOc2ccc3ncccc3c2)C=CC(C)=CC1COC(=O)NCc1ccccc1` (stereo not shown) [Compound EE], in the test with S. aureus, the “Biological Activity, S. aureus ATCC6538p” value is on record as 3.12; the “Biological Activity, S. aureus ATCC14154*” value is on record as 6.25; the “Biological Activity, S. aureus ATCC29213” value came out at 6.25; the “Biological Activity, S. aureus ATCC33591*” value is listed as above 12.5. Also, in the test on S. aureus, the “Biological Activity, S. aureus ATCCBAA-39*” value is recorded as above 12.5 and the “Biological Activity, S. aureus ATCCBAA-44*” value is above 12.5. Moreover, in the test on Haemophilus Influenzae, the “H. influenzae Activity, strain ATCC9006” value amounted to 12.5 and the “H. influenzae Activity, strain ATCC49766” value is on record as above 12.5. In the test on S. epidermidis, the “Biological Activity, S. epidermidis ATCC12228” value is on record as 6.25. Also, the “Biological Activity, E. faecalis ATCC51575” value in the test with E. faecalis is listed as above 12.5. For the same compound, in the test with S. pneumoniae, the “Biological Activity, S. pneumoniae ATCC6301” value is on record as 0.049; the “Biological Activity, S. pneumoniae ATCC49619” value came to 0.098; the “Biological Activity, S. pneumoniae ATCC700671” value is 0.2; the “Biological Activity, S. pneumoniae ATCC700676*” value came out at 0.049. In the test with S. pneumoniae, the “Biological Activity, S. pneumoniae ATCC700677*” value was 0.39; the “Biological Activity, S. pneumoniae ATCC700905*” value is recorded as 0.049; the “Biological Activity, S. pneumoniae ATCC700906*” value is above 12.5.
